Assay results: the supplement of paper PMC10307832

Experiments:
Experiment in all cases: relative viability (nuclei count vs DMSO), 5 days (fraction); higher = more cells survive
Conditions in all cases: main component drawn
[1] = compound: CC1=C(N=C(N=C1N)[C@H](CC(=O)N)NC[C@@H](C(=O)N)N)C(=O)N[C@@H]([C@H](C2=CN=CN2)OC3C(C(C(C(O3)CO)O)O)OC4C(C(C(C(O4)CO)O)OC(=O)N)O)C(=O)N[C@H](C)[C@H]([C@H](C)C(=O)N[C@@H]([C@@H](C)O)C(=O)NCCC5=NC(=CS5)C6=NC(=CS6)C(=O)NCCC[S+](C)C)O [Bleomycin] + CS(=O)(=O)N1CCN(Cc2cc3nc(-c4cccc5[nH]ncc45)nc(N4CCOCC4)c3s2)CC1 [Pictilisib] (partner 1 µM)
In short: (§1)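 Cells from lung cancer lines were seeded into 1536-well plates and, one day later, dosed by pin tool. Treatments were either a single drug or a fixed dose of an anchor drug with five library-drug doses (not always all listed) in √10 steps. After 5 days, nuclei were stained in a one-step fixation (final 0.05% Triton X-100, 1% formaldehyde, 1 ug/ml Hoechst) and counted on 4× images, and relative viability is the treated-to-vehicle nuclei ratio, as the median of duplicate plates.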

[2] = compound: CC1=C(N=C(N=C1N)[C@H](CC(=O)N)NC[C@@H](C(=O)N)N)C(=O)N[C@@H]([C@H](C2=CN=CN2)OC3C(C(C(C(O3)CO)O)O)OC4C(C(C(C(O4)CO)O)OC(=O)N)O)C(=O)N[C@H](C)[C@H]([C@H](C)C(=O)N[C@@H]([C@@H](C)O)C(=O)NCCC5=NC(=CS5)C6=NC(=CS6)C(=O)NCCC[S+](C)C)O [Bleomycin] + COc1cccc2cc(-c3nc([C@H]4CC[C@H](C(=O)O)CC4)n4ncnc(N)c34)[nH]c12 [OSI-027] (partner 0.5 µM)
In short: as §1

[3] = compound: CC1=C(N=C(N=C1N)[C@H](CC(=O)N)NC[C@@H](C(=O)N)N)C(=O)N[C@@H]([C@H](C2=CN=CN2)OC3C(C(C(C(O3)CO)O)O)OC4C(C(C(C(O4)CO)O)OC(=O)N)O)C(=O)N[C@H](C)[C@H]([C@H](C)C(=O)N[C@@H]([C@@H](C)O)C(=O)NCCC5=NC(=CS5)C6=NC(=CS6)C(=O)NCCC[S+](C)C)O [Bleomycin] + Cc1cc(Nc2cc(N3CCN(C)CC3)nc(Sc3ccc(NC(=O)C4CC4)cc3)n2)n[nH]1 [Tozasertib] (partner 0.1 µM)
In short: as §1

[4] = compound: CC1=C(N=C(N=C1N)[C@H](CC(=O)N)NC[C@@H](C(=O)N)N)C(=O)N[C@@H]([C@H](C2=CN=CN2)OC3C(C(C(C(O3)CO)O)O)OC4C(C(C(C(O4)CO)O)OC(=O)N)O)C(=O)N[C@H](C)[C@H]([C@H](C)C(=O)N[C@@H]([C@@H](C)O)C(=O)NCCC5=NC(=CS5)C6=NC(=CS6)C(=O)NCCC[S+](C)C)O [Bleomycin] + C[C@]1(O)C[C@@H](c2nc(-c3ccc4ccc(-c5ccccc5)nc4c3)c3c(N)nccn32)C1 [Linsitinib] (partner 1 µM)
In short: as §1

Cell Line | relative viability ([1]; first compound 0.01 µM) | relative viability ([1]; first compound 0.03162 µM) | relative viability ([1]; first compound 0.1 µM) | relative viability ([1]; first compound 0.3162 µM) | relative viability ([1]; first compound 1 µM) | relative viability ([2]; first compound 0.01 µM) | relative viability ([2]; first compound 0.03162 µM) | relative viability ([2]; first compound 0.1 µM) | relative viability ([2]; first compound 0.3162 µM) | relative viability ([2]; first compound 1 µM) | relative viability ([3]; first compound 0.01 µM) | relative viability ([3]; first compound 0.03162 µM) | relative viability ([3]; first compound 0.1 µM) | relative viability ([3]; first compound 0.3162 µM) | relative viability ([3]; first compound 1 µM) | relative viability ([4]; first compound 0.01 µM) | relative viability ([4]; first compound 0.03162 µM) | relative viability ([4]; first compound 0.1 µM) | relative viability ([4]; first compound 0.3162 µM) | relative viability ([4]; first compound 1 µM)
201T | 0.686 | 0.59 | 0.622 | 0.634 | 0.512 | 0.649 | 0.77 | 0.634 | 0.407 | 0.207 | 0.874 | 0.943 | 0.894 | 0.642 | 0.548 | 0.959 | 1.05 | 1.05 | 1 | 0.83
A549 | 0.4 | 0.389 | 0.323 | 0.0899 | 0.0479 | – | – | – | – | – | – | – | – | – | – | 0.514 | 0.472 | 0.384 | 0.0789 | 0.0779
A-427 | 0.58 | 0.488 | 0.492 | 0.155 | 0.174 | 0.332 | 0.439 | 0.34 | 0.187 | 0.144 | 0.201 | 0.168 | 0.223 | 0.126 | 0.159 | 0.999 | 1.08 | 1.05 | 0.893 | 0.266
ABC-1 | 0.68 | 0.689 | 0.719 | 0.333 | 0.286 | 0.394 | 0.428 | 0.388 | 0.18 | 0.212 | 0.199 | 0.209 | 0.197 | 0.178 | 0.198 | 0.938 | 0.647 | 0.63 | 0.355 | 0.248
BEN | 0.573 | 0.57 | 0.54 | 0.389 | 0.435 | 0.284 | 0.299 | 0.286 | 0.243 | 0.288 | 0.487 | 0.519 | 0.452 | 0.431 | 0.475 | 0.862 | 0.868 | 0.896 | 0.637 | 0.682
CAL-12T | – | 0.588 | 0.394 | 0.207 | 0.236 | 0.551 | 0.465 | 0.389 | 0.21 | 0.174 | 0.23 | 0.249 | 0.179 | 0.179 | 0.208 | 0.623 | 0.49 | 0.258 | 0.156 | 0.176
COR-L23 | 0.705 | 0.7 | 0.433 | 0.129 | 0.0958 | 0.566 | 0.696 | 0.415 | 0.139 | 0.122 | 0.169 | 0.156 | 0.128 | 0.102 | 0.104 | 0.696 | 0.559 | 0.307 | 0.106 | 0.102
COR-L 105 | 0.412 | 0.43 | 0.406 | 0.278 | 0.276 | 0.591 | 0.567 | 0.639 | 0.339 | 0.377 | 0.31 | 0.337 | 0.33 | 0.325 | 0.279 | 0.765 | 0.798 | 0.708 | 0.393 | 0.317
Calu-6 | 0.575 | 0.537 | 0.385 | 0.179 | 0.177 | – | – | – | – | – | – | – | – | – | – | 0.741 | 0.6 | 0.508 | 0.174 | 0.125
ChaGo-K-1 | – | 0.728 | 0.655 | 0.406 | 0.217 | 0.46 | 0.536 | 0.5 | 0.302 | 0.179 | 0.221 | 0.214 | 0.23 | 0.164 | 0.192 | – | – | – | – | –
EBC-1 | 0.359 | 0.376 | 0.346 | 0.272 | 0.283 | – | – | – | – | – | – | – | – | – | – | 0.829 | 0.72 | 0.78 | 0.698 | 0.366
EKVX | 0.422 | 0.39 | 0.376 | 0.212 | 0.189 | 0.636 | 0.711 | 0.598 | 0.398 | 0.387 | 0.434 | 0.413 | 0.365 | 0.191 | 0.204 | 0.909 | 0.822 | 0.859 | 0.375 | 0.336
EMC-BAC-2 | 0.498 | 0.489 | 0.427 | 0.282 | 0.222 | 0.298 | 0.326 | 0.304 | 0.257 | 0.159 | 0.2 | 0.278 | 0.246 | 0.22 | 0.178 | 0.746 | 0.696 | 0.688 | 0.38 | 0.265
EPLC-272H | 0.288 | 0.352 | 0.265 | 0.137 | 0.161 | 0.258 | 0.257 | 0.21 | 0.147 | 0.149 | 0.232 | 0.243 | 0.191 | 0.127 | 0.173 | 1.21 | 1.06 | 1.08 | 1.45 | 0.196
H3255 | 0.442 | 0.414 | 0.431 | 0.287 | 0.276 | 0.524 | 0.6 | 0.504 | 0.53 | 0.429 | 0.543 | 0.489 | 0.622 | 0.427 | 0.278 | 0.702 | 0.879 | 0.902 | 0.538 | 0.387
HARA | 0.333 | 0.557 | 0.428 | 0.27 | 0.184 | 0.401 | 0.505 | 0.454 | 0.3 | 0.176 | 0.0994 | 0.118 | 0.107 | 0.1 | 0.081 | 0.944 | 1.02 | 0.887 | 0.457 | 0.467
